Reference: ChEMBL document CHEMBL5678809, “Preclinical characterization of GLPG0634, a selective inhibitor of JAK1, for the treatment of inflammatory diseases” (J Immunol, 2013)
pIC50: −log10 of the molar value. Active and inactive are the calls of the source. The rule behind the calls is not given here.

Legend:
[1] = target: LIM domain kinase 1 (Homo sapiens) (UniProt P53667); assay: Inhibition of LIMK1 (unknown origin) at 1 uM relative to control
Ephrin type-A receptor 5 = Ephrin type-A receptor 5 (Homo sapiens, UniProt P54756); assay: Inhibition of EPHA5 (unknown origin)
[2] = target: Hepatocyte growth factor receptor (Homo sapiens) (UniProt P08581); assay: Inhibition of Met (unknown origin) at 1 uM relative to control
[3] = target: Serine/threonine-protein kinase D2 (Homo sapiens) (UniProt Q9BZL6); assay: Inhibition of PKD2 (unknown origin) at 1 uM relative to control
Mus musculus [4] = assay: Antiarthritic activity against collagen-induced arthritis DBA/1J mouse model assessed as LIF level in serum at 50 mg/kg, po measured for 4 hrs by luminex analysis (reference value: 696 +/- 108 ng/ml); assay type: functional
Mus musculus [5] = assay: Antiarthritic activity against collagen-induced arthritis DBA/1J mouse model assessed as cartilage degradation by measuring lesion score in hind paw at 50 mg/kg, po administered twice daily for 14 days by histological analysis; assay type: functional, organism-based; conditions: time 14.0 day
[6] = target: Serine/threonine-protein kinase Sgk1 (Homo sapiens) (UniProt O00141); assay: Inhibition of SGK (unknown origin) at 1 uM relative to control
[7] = Clearance in Sprague-Dawley rat at 1 mg/kg, iv measured upto 8 hrs by LC-MS analysis; assay type: ADME, organism-based; conditions: in vivo
[8] = target: Ephrin type-B receptor 4 (Homo sapiens) (UniProt P54760); assay: Inhibition of EphB4 (unknown origin) at 1 uM relative to control
[9] = target: cGMP-dependent protein kinase 1 (Homo sapiens) (UniProt Q13976); assay: Inhibition of PKG1 (unknown origin) at 1 uM relative to control
[10] = target: Ephrin type-A receptor 2 (Homo sapiens) (UniProt P29317); assay: Inhibition of EphA2 (unknown origin) at 1 uM relative to control
[11] = target: Myotonin-protein kinase (Homo sapiens) (UniProt Q09013); assay: Inhibition of DMPK (unknown origin) at 1 uM relative to control
Rattus norvegicus = assay: Antiarthritic activity against collagen-induced arthritis Dark Agouti rat model assessed as reduction in clinical score at 1 to 10 mg/kg, po measured after day 5; assay type: functional, organism-based; conditions: dose 1-10 mg/kg, time 5.0 day
[12] = target: Vascular endothelial growth factor receptor 3 (Homo sapiens, UniProt P35916); assay: Inhibition of Flt4 (unknown origin) at 1 uM relative to control
Misshapen-like kinase 1 = Misshapen-like kinase 1 (Homo sapiens, UniProt Q8N4C8); assay: Inhibition of MINK1 (unknown origin) at 1 uM relative to control
[13] = target: Death-associated protein kinase 3 (Homo sapiens) (UniProt O43293); assay: Inhibition of ZIPK (unknown origin) at 1 uM relative to control
Mus musculus [14] = assay: Antiarthritic activity against collagen-induced arthritis DBA/1J mouse model assessed as reduction in clinical score at 50 mg/kg, po administered twice daily for 14 days; assay type: functional, organism-based; conditions: time 14.0 day
[15] = target: Serine/threonine-protein kinase PAK 4 (Homo sapiens) (UniProt O96013); assay: Inhibition of PAK4 (unknown origin) at 1 uM relative to control
[16] = target: PAS domain-containing serine/threonine-protein kinase (Homo sapiens) (UniProt Q96RG2); assay: Inhibition of PASK (unknown origin) at 1 uM relative to control
[17] = target: Homeodomain-interacting protein kinase 1 (Homo sapiens) (UniProt Q86Z02); assay: Inhibition of HIPK1 (unknown origin) at 1 uM relative to control
[18] = target: Tyrosine-protein kinase Fer (Homo sapiens) (UniProt P16591); assay: Inhibition of Fer (unknown origin) at 1 uM relative to control
[19] = Half life in Sprague-Dawley rat at 5 mg/kg, po measured upto 24 hrs by LC-MS analysis; assay type: ADME, organism-based; conditions: in vivo
[20] = Half life in Dark Agouti rat at 3 to 30 mg/kg, po; assay type: ADME, organism-based; conditions: in vivo, dose 3-30 mg/kg
[21] = target: Tyrosine-protein kinase Lyn (Homo sapiens, UniProt P07948); assay: Inhibition of LYNA (unknown origin)
[22] = target: Serine/threonine-protein kinase MARK2 (Homo sapiens) (UniProt Q7KZI7); assay: Inhibition of PAR-1B (unknown origin) at 1 uM relative to control
[23] = target: Serine/threonine-protein kinase VRK2 (Homo sapiens) (UniProt Q86Y07); assay: Inhibition of VRK2 (unknown origin) at 1 uM relative to control
[24] = target: Ribosomal protein S6 kinase alpha-5 (Homo sapiens) (UniProt O75582); assay: Inhibition of MSK1 (unknown origin) at 1 uM relative to control
[25] = target: Tyrosine-protein kinase Mer (Homo sapiens, UniProt Q12866); assay: Inhibition of Mer (unknown origin)
[26] = target: Mast/stem cell growth factor receptor Kit (Homo sapiens, UniProt P10721); assay: Inhibition of cKIT (unknown origin)
[27] = target: Serine/threonine-protein kinase WNK3 (Homo sapiens) (UniProt Q9BYP7); assay: Inhibition of WNK3 (unknown origin) at 1 uM relative to control
[28] = target: Dual specificity mitogen-activated protein kinase kinase 7 (Homo sapiens) (UniProt O14733); assay: Inhibition of MKK7 (unknown origin) at 1 uM relative to control
Mus musculus [29] = assay: Antiarthritic activity against collagen-induced arthritis DBA/1J mouse model assessed as reduction in IP-10 level in serum at 50 mg/kg, po measured for 4 hrs by luminex analysis; assay type: functional, organism-based
[30] = target: Cyclin-dependent kinase 1/cyclin B1 (Homo sapiens) (UniProt P06493+P14635); assay: Inhibition of CDK1/cyclinB (unknown origin) at 1 uM relative to control; assay type: protein-complex assay
[31] = target: CDK7/Cyclin H/MNAT1 (Homo sapiens) (UniProt P51946+P50613+P51948); assay: Inhibition of CDK7/cyclinH/MAT1 (unknown origin) at 1 uM relative to control; assay type: protein-complex assay
[32] = target: Serine/threonine-protein kinase mTOR (Homo sapiens) (UniProt P42345); assay: Inhibition of mTOR (unknown origin) at 1 uM relative to control
[33] = target: Ribosomal protein S6 kinase beta-2 (Homo sapiens) (UniProt Q9UBS0); assay: Inhibition of p70S6K2 (unknown origin) at 1 uM relative to control
Mus musculus [34] = assay: Antiarthritic activity against collagen-induced arthritis DBA/1J mouse model assessed as reduction in TNFalpha expression at 50 mg/kg, po measured for 4 hrs; assay type: functional, organism-based
[35] = target: Proto-oncogene tyrosine-protein kinase Src (Homo sapiens) (UniProt P12931); assay: Inhibition of Src (unknown origin) (1 to 530 residues) at 1 uM relative to control
[36] = target: Serine/threonine-protein kinase Chk2 (Homo sapiens) (UniProt O96017); assay: Inhibition of CHK2 (unknown origin) at 1 uM relative to control
[37] = target: RAF proto-oncogene serine/threonine-protein kinase (Homo sapiens) (UniProt P04049); assay: Inhibition of c-RAF (unknown origin) at 1 uM relative to control

Sequence of Serine/threonine-protein kinase WNK3 (Homo sapiens) (Q9BYP7 whole entry): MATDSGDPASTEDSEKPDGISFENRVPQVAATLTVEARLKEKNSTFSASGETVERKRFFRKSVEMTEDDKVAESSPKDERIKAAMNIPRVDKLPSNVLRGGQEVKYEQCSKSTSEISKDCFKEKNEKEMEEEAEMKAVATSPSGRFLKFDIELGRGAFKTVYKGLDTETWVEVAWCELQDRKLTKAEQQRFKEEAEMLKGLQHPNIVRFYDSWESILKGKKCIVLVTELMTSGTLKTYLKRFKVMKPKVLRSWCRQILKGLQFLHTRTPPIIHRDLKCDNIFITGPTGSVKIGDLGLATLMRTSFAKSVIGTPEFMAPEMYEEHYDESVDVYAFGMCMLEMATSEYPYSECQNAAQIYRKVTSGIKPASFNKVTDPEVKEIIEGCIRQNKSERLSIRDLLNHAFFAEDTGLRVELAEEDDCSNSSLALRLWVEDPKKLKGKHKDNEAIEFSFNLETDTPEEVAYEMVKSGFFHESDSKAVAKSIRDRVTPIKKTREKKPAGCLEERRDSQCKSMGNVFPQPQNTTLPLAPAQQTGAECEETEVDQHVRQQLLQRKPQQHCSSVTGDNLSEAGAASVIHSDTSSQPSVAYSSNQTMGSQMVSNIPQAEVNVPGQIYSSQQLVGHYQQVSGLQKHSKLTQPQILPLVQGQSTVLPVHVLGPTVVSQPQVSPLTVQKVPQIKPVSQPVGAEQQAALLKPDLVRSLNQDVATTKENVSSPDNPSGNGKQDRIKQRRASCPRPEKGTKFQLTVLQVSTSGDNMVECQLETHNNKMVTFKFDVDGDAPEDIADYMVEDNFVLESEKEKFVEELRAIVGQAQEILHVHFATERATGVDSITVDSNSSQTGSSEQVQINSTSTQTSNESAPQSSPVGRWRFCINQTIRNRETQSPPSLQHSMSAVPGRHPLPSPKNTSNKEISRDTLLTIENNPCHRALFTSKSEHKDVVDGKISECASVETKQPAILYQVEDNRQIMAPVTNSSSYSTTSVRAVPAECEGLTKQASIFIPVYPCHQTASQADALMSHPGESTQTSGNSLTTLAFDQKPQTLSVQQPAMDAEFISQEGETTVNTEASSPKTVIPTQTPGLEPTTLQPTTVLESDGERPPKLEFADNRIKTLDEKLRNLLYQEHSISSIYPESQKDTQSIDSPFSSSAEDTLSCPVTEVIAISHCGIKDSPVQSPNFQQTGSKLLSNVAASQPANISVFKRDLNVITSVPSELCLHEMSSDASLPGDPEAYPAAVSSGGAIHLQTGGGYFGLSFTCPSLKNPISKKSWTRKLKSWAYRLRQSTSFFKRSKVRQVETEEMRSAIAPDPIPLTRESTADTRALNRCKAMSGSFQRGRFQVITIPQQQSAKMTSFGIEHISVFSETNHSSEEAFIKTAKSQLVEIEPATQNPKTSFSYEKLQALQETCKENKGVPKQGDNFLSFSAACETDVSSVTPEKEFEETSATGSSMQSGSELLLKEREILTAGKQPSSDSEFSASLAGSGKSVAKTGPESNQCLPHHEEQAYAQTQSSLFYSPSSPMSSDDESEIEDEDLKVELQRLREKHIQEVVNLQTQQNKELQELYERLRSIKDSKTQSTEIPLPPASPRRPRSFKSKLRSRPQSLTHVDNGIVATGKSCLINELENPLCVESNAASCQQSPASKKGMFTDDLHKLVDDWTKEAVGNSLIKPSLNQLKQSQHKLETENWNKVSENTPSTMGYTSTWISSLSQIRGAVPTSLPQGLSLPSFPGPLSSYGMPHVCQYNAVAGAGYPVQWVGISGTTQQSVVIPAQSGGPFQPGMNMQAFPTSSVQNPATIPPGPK
Sequence of Homeodomain-interacting protein kinase 1 (Homo sapiens) (Q86Z02 whole entry, looked up): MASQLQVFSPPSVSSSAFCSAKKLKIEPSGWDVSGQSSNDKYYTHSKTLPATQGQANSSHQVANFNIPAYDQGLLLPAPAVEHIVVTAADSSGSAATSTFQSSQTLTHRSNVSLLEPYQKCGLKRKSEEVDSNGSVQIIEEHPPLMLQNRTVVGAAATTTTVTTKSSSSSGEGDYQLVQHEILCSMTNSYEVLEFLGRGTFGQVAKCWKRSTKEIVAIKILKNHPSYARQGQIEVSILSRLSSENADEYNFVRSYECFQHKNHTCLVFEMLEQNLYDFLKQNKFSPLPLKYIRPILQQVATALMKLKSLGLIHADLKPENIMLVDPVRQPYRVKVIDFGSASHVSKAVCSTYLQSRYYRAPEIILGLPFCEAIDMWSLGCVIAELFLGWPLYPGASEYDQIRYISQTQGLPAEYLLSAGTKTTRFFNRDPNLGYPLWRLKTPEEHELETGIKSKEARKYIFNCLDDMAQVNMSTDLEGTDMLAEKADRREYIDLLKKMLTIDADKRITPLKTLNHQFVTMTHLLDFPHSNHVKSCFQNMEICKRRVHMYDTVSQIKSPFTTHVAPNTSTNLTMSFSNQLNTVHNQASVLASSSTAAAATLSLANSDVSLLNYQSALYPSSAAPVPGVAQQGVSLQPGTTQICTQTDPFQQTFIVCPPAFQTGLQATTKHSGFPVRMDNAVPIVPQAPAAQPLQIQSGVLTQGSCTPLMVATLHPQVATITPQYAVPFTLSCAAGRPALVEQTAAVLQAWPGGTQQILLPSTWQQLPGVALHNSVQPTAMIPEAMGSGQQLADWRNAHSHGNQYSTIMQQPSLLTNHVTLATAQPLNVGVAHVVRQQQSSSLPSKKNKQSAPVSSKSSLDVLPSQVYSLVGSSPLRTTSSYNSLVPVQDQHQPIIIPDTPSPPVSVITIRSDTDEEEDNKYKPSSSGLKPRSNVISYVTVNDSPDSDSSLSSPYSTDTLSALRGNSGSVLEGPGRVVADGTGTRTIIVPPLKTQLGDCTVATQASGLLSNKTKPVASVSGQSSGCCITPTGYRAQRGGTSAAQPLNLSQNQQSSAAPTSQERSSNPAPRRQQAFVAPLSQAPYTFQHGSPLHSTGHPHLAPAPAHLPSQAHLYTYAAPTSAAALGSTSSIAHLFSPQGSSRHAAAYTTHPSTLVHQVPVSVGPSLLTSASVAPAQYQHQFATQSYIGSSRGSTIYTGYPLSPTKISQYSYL
Sequence of Misshapen-like kinase 1 (Q8N4C8 whole entry, looked up): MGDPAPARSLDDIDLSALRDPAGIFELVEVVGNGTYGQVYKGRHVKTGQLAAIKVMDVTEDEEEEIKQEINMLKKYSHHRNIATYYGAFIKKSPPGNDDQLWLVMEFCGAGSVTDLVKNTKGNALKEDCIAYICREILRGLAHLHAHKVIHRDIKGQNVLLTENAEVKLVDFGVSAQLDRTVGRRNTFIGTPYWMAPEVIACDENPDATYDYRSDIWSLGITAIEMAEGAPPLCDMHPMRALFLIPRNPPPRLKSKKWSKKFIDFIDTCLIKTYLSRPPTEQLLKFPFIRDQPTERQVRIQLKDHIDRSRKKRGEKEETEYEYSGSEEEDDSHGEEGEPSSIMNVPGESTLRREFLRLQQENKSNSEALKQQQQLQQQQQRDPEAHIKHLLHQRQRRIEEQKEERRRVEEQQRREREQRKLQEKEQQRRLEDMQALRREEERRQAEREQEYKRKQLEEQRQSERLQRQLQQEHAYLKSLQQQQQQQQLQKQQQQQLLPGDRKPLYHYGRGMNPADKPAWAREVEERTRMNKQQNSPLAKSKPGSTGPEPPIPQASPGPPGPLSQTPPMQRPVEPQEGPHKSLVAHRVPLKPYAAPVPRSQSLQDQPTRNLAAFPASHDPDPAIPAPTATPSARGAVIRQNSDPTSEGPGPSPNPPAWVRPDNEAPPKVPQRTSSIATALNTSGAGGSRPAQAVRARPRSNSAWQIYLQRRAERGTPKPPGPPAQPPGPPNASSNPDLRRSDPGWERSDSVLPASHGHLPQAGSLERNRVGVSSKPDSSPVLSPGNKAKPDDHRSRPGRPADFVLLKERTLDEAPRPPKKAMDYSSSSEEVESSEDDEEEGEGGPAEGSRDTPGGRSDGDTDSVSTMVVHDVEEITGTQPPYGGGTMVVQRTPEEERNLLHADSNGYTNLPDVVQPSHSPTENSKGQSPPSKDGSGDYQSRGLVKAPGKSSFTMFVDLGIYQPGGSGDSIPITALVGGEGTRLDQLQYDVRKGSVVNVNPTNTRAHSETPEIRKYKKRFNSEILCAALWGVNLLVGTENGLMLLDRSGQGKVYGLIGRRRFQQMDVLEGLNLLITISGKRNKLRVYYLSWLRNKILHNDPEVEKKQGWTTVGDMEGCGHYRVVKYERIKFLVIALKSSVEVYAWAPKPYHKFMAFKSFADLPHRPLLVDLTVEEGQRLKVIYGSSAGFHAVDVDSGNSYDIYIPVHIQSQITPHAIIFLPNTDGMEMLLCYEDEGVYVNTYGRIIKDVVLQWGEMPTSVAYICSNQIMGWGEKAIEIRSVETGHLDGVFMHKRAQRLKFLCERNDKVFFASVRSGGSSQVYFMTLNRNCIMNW
Sequence of Ribosomal protein S6 kinase alpha-5 (Homo sapiens) (O75582 whole entry, looked up): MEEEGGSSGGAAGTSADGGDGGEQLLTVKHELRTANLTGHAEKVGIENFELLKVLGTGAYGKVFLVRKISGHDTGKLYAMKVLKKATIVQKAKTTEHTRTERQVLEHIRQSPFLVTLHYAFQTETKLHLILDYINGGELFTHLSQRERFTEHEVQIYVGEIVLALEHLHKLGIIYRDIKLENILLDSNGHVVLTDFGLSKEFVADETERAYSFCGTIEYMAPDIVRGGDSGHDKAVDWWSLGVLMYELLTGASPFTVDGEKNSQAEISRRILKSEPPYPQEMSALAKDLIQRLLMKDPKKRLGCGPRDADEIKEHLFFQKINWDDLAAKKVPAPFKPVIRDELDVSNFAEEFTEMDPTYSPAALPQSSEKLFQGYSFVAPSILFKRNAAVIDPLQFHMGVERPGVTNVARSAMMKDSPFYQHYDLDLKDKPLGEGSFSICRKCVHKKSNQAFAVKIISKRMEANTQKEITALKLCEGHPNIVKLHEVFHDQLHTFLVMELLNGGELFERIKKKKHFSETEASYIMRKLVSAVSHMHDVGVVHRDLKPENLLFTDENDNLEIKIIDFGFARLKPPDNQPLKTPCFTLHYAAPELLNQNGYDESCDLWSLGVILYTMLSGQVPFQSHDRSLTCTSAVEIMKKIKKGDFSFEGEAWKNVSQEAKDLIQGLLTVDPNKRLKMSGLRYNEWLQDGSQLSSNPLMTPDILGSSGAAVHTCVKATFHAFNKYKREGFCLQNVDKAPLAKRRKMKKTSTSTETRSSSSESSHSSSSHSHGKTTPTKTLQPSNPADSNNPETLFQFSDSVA

O=C(Nc1nc2cccc(-c3ccc(CN4CCS(=O)(=O)CC4)cc3)n2n1)C1CC1 [FILGOTINIB]
inhibition [1]: -1%
pIC50 (Ephrin type-A receptor 5): < 5.00
inhibition [2]: -3%
inhibition [3]: -10%
Activity (Mus musculus [4]): 743.8 ng/mL
Activity (Mus musculus [5]): Active
inhibition [6]: 7%
clearance [7]: 23.3 mL/min/kg
inhibition [8]: 5%
inhibition [9]: -1%
inhibition [10]: -9%
inhibition [11]: -4%
Activity (Rattus norvegicus): Active
inhibition [12]: 77%
inhibition (Misshapen-like kinase 1): -2%
inhibition [13]: 3%
Activity (Mus musculus [14]): Active
inhibition [15]: 0%
inhibition [16]: 1%
inhibition [17]: -8%
inhibition [18]: -5%
half-life [19]: 3.9 h
half-life [20]: ~4 h
pIC50 [21]: < 5.00
inhibition [22]: -7%
inhibition [23]: 2%
inhibition [24]: -1%
pIC50 [25]: 5.89
pIC50 [26]: < 5.00
inhibition [27]: -2%
inhibition [28]: 13%
Activity (Mus musculus [29]): Active
inhibition [30]: 7%
inhibition [31]: 12%
inhibition [32]: -7%
inhibition [33]: -6%
Activity (Mus musculus [34]): Active
inhibition [35]: 32%
inhibition [36]: 6%
inhibition [37]: -4%
